Measured values taken from US20110275635A1 (priority 2009, published 2011).
≈ marks a conversion by molar mass, not a printed value. Where a name gives a salt, the structure may show the parent alone. Read-outs that look alike come from different tables or passages of the source.

Columns and labels:
[1] = target: B. anthracis NADs (Bacillus anthracis, UniProt Q81RP3); assay type: biochemical
[2] = system: Bacillus anthracis Sterne; test: microbe, parasite or virus in culture; assay type: cell-based; conditions: for MIC: Bacillus anthracis
[3] = In vivo toxicity, maximum tolerated dose; conditions: female, BALB/c, mouse, intraperitoneal

Sequence of B. anthracis NADs (Q81RP3 whole entry, looked up): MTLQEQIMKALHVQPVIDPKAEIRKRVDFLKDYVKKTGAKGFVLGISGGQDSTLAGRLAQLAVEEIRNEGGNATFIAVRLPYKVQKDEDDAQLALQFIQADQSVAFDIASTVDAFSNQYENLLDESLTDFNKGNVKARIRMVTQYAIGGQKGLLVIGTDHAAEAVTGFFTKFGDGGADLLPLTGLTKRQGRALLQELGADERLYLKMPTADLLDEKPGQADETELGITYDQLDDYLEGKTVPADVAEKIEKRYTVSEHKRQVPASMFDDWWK

SMILES | IC50 ([1]; read-out: IC50) | IC50 ([1]; read-out: NADs IC50) | MIC ([2]; read-out: B.a. MIC (μM)) | MTD [3] | MIC ([2]; 5 h, read-out: MIC100 (μM)) | activity against B. anthracis (in words) [2]
Cc1ccc(C(=O)Nc2cccc(-c3nc4ccccc4[nH]3)c2)cc1 [Compound 5710] | 128 µM | 189 ± 86 µM | > 240 µM |  |  | 
O=C(Nc1cccc(C(=O)Nc2cccc3ccccc23)c1)c1cccc([N+](=O)[O-])c1 [Compound 5802] | 225 µM | 225 ± 36 µM | > 240 µM |  |  | 
COc1ccc(Oc2ccc([N+](=O)[O-])cc2C(=O)Nc2ccc(S(N)(=O)=O)cc2)cc1 [Compound 5724] | 291 µM | 291 ± 29 µM | > 240 µM |  |  | 
O=C(Nc1cccc(/N=C/c2cc([N+](=O)[O-])ccc2O)c1)c1ccc(Cl)cc1Cl [Compound 5691] | 106 µM | 106 ± 2 µM | > 232 µM |  |  | 
O=[N+]([O-])c1ccc(O)c(/C=N/c2cccc(O)c2)c1 [Compound 5660] | 22.5 µM | 22.5 µM | > 387 µM |  |  | 
O=C(Nc1ccc(/N=N/c2ccccc2)cc1)c1ccc([N+](=O)[O-])cc1 [Compound 5792] | 76 µM | 76 ± 13 µM | > 240 µM |  |  | 
COc1cccc(NC(=O)Nc2ccc(S(=O)(=O)Nc3ccc(Cl)c(Cl)c3)cc2)c1 [Compound 6325] |  |  |  | 50 mg/kg |  | 
COc1ccc(NC(=O)Nc2cccc(NC(=O)Nc3ccc(OC)cc3)c2F)cc1 [Compound 5707] | 253 µM | 253 ± 65 µM | > 240 µM |  |  | 
COc1ccccc1NC(=O)NC(=O)c1ccc(-c2csnn2)cc1 [Compound 5737] | 235 µM | 235 ± 71 µM | > 240 µM |  |  | 
O=[N+]([O-])c1ccc(-c2cnc(N/N=C/c3cccc([N+](=O)[O-])c3)nc2)cc1 [Compound 5591] | 160 µM | 160 ± 57 µM | > 274 µM |  |  | 
N/C(=N\OC(=O)c1ccc(Cl)c(Cl)c1)c1cccc(CSc2ccccn2)c1 [Compound 5775] | 290 µM | 290 µM | > 240 µM |  |  | 
O=C(Nc1ccc([N+](=O)[O-])cc1)c1ccc(-c2nnc(-c3ccccc3)o2)cc1 [Compound 5605] | 146 µM | 146 ± 0.2 µM | > 259 µM |  | > 259 µM | 
Cc1c(NC(=O)c2ccc(N3CCCC3)c([N+](=O)[O-])c2)cccc1-c1nc2ccccc2[nH]1 [Compound 5830] | 198 µM | 193 ± 8 µM | > 240 µM |  |  | 
O=C(Nc1ccc(S(=O)(=O)Nc2ncccn2)cc1)Nc1ccc(Cl)c(Cl)c1 [Compound 5617] |  |  | 15 µM (≈ 6.57 µg/mL) |  |  | good activities
O=C(Nc1ccc(Cc2ccc(NC(=O)c3ccc4c(c3)OCO4)cc2)cc1)c1ccc2c(c1)OCO2 [Compound 5818] | 65.7 µM | 65.7 µM |  |  | > 240 µM | 
O=C(Nc1cccc(/N=C/c2cc([N+](=O)[O-])ccc2O)c1)c1cccc(Br)c1 [Compound 5684] | 99.5 µM | 99 ± 12 µM | > 227 µM |  |  | 
COc1ccccc1NC(=O)COc1ccc(/C=C(/C#N)c2nc3ccccc3[nH]2)cc1 [Compound 5822] | 107 µM | 178 ± 102 µM | > 240 µM |  |  | 
CCOC(=O)C1=C(Nc2cccc3ccccc23)S/C(=C\c2ccc([N+](=O)[O-])cc2)C1=O [Compound 5597] | 86.1 µM | 86 ± 33 µM | > 224 µM |  |  | 
Nc1ncnc(Nc2ccc(Cl)cc2C(=O)c2ccccc2Cl)c1[N+](=O)[O-] [Compound 5616] | 208 µM | 231 ± 36 µM | > 247 µM |  |  | 
NC(=O)c1ccc(/N=C/c2cc([N+](=O)[O-])ccc2Cl)cc1 [Compound 5679] | 262 µM | 262 ± 8 µM | > 329 µM |  |  | 
Cc1cc(-c2nnc(CSc3nnc(NC(=O)c4ccc(F)c(Cl)c4)s3)o2)ccc1[N+](=O)[O-] [Compound 5731] | 271 µM | 270 ± 3 µM | > 240 µM |  |  | 

SMILES | IC50 ([1]; read-out: IC50) | IC50 ([1]; read-out: NADs IC50) | MIC ([2]; read-out: B.a. MIC (μM)) | MTD [3] | MIC ([2]; 5 h, read-out: MIC100 (μM)) | activity against B. anthracis (in words) [2]
COc1cccc(NC(=O)Nc2nnc(COc3ccc([N+](=O)[O-])cc3)s2)c1 [Compound 5807] | 124 µM | 124 ± 5 µM | > 240 µM |  |  | 
O=C(Nc1ccc(S(=O)(=O)Nc2cccc(C(F)(F)F)c2)cc1)Nc1cccc(Cl)c1 [Compound 5991] |  |  |  | 10 mg/kg |  | 
O=C(O)c1cn(C2CC2)c2cc(N3CCNCC3)c(F)cc2c1=O [Cipro, ciprofloxacin hydrochloride, reference compound] |  |  | 0.5 µM |  |  | 
Nc1c(C(=O)c2ccc([N+](=O)[O-])cc2)sc(Nc2ccccc2)c1-c1nc2ccccc2[nH]1 [Compound 5768] | 170 µM | 170 ± 48 µM | > 240 µM |  |  | 
NC(=O)c1ccc(NC(=O)c2ccc(Oc3ccc([N+](=O)[O-])cc3Cl)cc2)cc1 [Compound 5821] | 104 µM | 130 ± 37 µM | > 240 µM |  |  | 
Cc1ccc(-c2nc3cc(Cl)ccc3o2)cc1CC(=O)c1cc([N+](=O)[O-])c(C)c([N+](=O)[O-])c1 [Compound 5588] | 78.5 µM | 84 ± 35 µM | > 240 µM |  | > 215 µM | 
O=C(CCC(=O)Nc1ccc(Nc2ccccc2)cc1)Nc1ccc(Nc2ccccc2)cc1 [Compound 5604] | 141 µM | 256 ± 210 µM | > 222 µM |  |  | 
CCc1ccc(S(=O)(=O)Nc2c([N+](=O)[O-])ccc3ccccc23)cc1 [Compound 5599] |  |  |  |  | 3.75 µM (≈ 1.34 µg/mL) | 
O=C(COC(=O)c1ccc(NC(=O)c2ccc([N+](=O)[O-])cc2)cc1)c1ccc(F)cc1 [Compound 5606] | 141 µM | 176 ± 49 µM | > 237 µM |  |  | 
O=C(NC(=S)Nc1cc(-c2nc3ccccc3[nH]2)ccc1Cl)c1ccccc1[N+](=O)[O-] [Compound 5831] | 243 µM | 243 ± 38 µM | > 240 µM |  |  | 
O=C(Nc1cccc(Oc2ccc3c(c2)C(=O)N(c2ccccc2)C3=O)c1)c1cccc([N+](=O)[O-])c1 [Compound 5799] | 175 µM | 202 ± 38 µM | > 240 µM |  |  | 
Cc1onc(-c2ccccc2)c1NC(=O)Nc1ccc(Oc2ncnc3cc(Cl)ccc23)nc1 [Compound 5763] | 232 µM | 232 ± 55 µM | > 240 µM |  |  | 
COc1ccc(CCNC(=O)NCc2cccc(CNC(=O)NCCc3ccc(OC)cc3)c2)cc1 [Compound 5609] | 70 µM | 70 µM | > 204 µM |  |  | 
O=C(Nc1ccccc1)Nc1ccc(NC(=O)c2ccc(NC(=O)Nc3ccccc3)cc2)cc1 [Compound 5793] | 78.8 µM | 79 ± 38 µM | > 240 µM |  |  | 
Cc1cc(C)c2oc(-c3cccc(NC(=O)/C=C/c4cccc([N+](=O)[O-])c4)c3)nc2c1 [Compound 5806] | 67.8 µM | 68 ± 5 µM | > 240 µM |  |  | 
O=C(Nc1ccc2oc(-c3cc(Br)ccc3Cl)nc2c1)c1cccc([N+](=O)[O-])c1 [Compound 5798] | 61.8 µM | 61.8 µM |  |  | > 240 µM | 
COc1ccc(NC(=O)Nc2ccc(Oc3ncnc4cc(Cl)ccc34)nc2)cc1OC1CCCC1 [Compound 5764] | 97.2 µM | 97 ± 55 µM | > 240 µM |  |  | 
O=C(Cn1cc(/C=C/c2[nH]c(=O)[nH]c(=O)c2[N+](=O)[O-])c2ccccc21)Nc1ccc(F)cc1 [Compound 5615] | 55.4 µM | 55.4 µM |  |  | > 223 µM | 
O=C(CSc1nc(Nc2ccccc2)nc(N2CCOCC2)n1)Nc1ccc([N+](=O)[O-])cc1O [Compound 5833] |  |  | 15 µM (≈ 7.25 µg/mL) |  |  | good activities
O=C1C=C(Nc2ccccc2C(=O)O)C(=O)C=C1Nc1ccccc1C(=O)O [Compound 5589] | 137 µM | 118 ± 67 µM | > 264 µM |  |  | 
